Legend:
Test in all cases: In vitro killing activity (CellCounting-Lite 2.0, 7 days)
Assay type in all cases: cell-based
HCC827 cells = conditions: Homo sapiens, 168 h
NCI-H292 cells = conditions: Homo sapiens, 168 h
A431 cells = conditions: Homo sapiens, A-431, 168 h
Panc 02.03 cells = conditions: Homo sapiens, Panc 02.03, 168 h

`CC[C@@]1(O)C(=O)OCc2c1cc1n(c2=O)Cc2c-1nc1ccc(N)c3c1c2CCO3` [CPT2, (S)-4-amino-9-ethyl-9-hydroxy-1,9,12,15-tetrahydro-13H-pyrano[4,3,2-de]pyrano[3′,4′:6,7]indolizino[1,2-b]quinoline-10,13(2H)-dione] showed an IC50 (HCC827 cells) of 1.69 nM, an IC50 (NCI-H292 cells) of 0.728 nM and an IC50 (A431 cells) of 1.38 nM. It also gave an IC50 (Panc 02.03 cells) of 0.981 nM.
